Patent US6143739A, “Basic proline-amide derivatives of GE 2270 and GE 2270-like antibiotics” (Biosearch Italia S.p.A., priority 1995, dated 2000)

What was measured:
[1] = tested on: gram positive bacteria; details: described by K. Shimanaka et al.; cited from earlier work
[2] = tested on: Strept. pneumoniae L44; assay: MIC by microbroth dilution; format: cell-based; details: 0.01% (w/v) BSA, 10^4 CFU/ml, read after 18-24 h, 37° C., Todd Hewitt broth
Protocol: BSA is added to the diluent to avoid possible adherence of the compounds of the invention to the plastic surface of the microtiter wells, as disclosed also by B. Goldstein et al., Antimicrobial Agents and Chemotherapy, 37 (1993), 741-745. Inocula were 10^4 CFU/ml, except for Propionibacterium acnes and Bacteroides fragilis (10^5 CFU/ml). MICs were read after 18-24 h, except for Haemophilus influenzae, P. acnes, B. fragilis (48 h). All microorganisms were incubated at 37° C.; H. influenzae in a 5% CO2 atmosphere, anaerobes in a N2 --CO2 --H2 (80:10:10) mixture; other organisms in air. The growth media are: Oxoid Iso-Sensitest broth for staphylococci and Enterococcus faecalis); Difco Todd Hewitt broth for streptococci; Difco brain heart infusion broth+1% Difco Supplement C for H. influenzae; Difco Wilkins-Chalgren broth for anaerobes.

[3] = tested on: Staph. epidermidis ATCC 12228 L147; assay: MIC by microbroth dilution; format: cell-based; details: 0.01% (w/v) BSA, 10^4 CFU/ml, read after 18-24 h, 37° C., Iso-Sensitest broth
Protocol: (§1) The minimal inhibitory concentration (MIC) has been determined by microbroth dilution methodology, in the presence of 0.01% (w/v) of bovine serum albumin (BSA). BSA is added to the diluent to avoid possible adherence of the compounds of the invention to the plastic surface of the microtiter wells, as disclosed also by B. Goldstein et al., Antimicrobial Agents and Chemotherapy, 37 (1993), 741-745.
(§2) Inocula were 10^4 CFU/ml, except for Propionibacterium acnes and Bacteroides fragilis (10^5 CFU/ml).
(§3) MICs were read after 18-24 h, except for Haemophilus influenzae, P. acnes, B. fragilis (48 h).
(§4) All microorganisms were incubated at 37° C.; H. influenzae in a 5% CO2 atmosphere, anaerobes in a N2 --CO2 --H2 (80:10:10) mixture; other organisms in air.
(§5) The growth media are: Oxoid Iso-Sensitest broth for staphylococci and Enterococcus faecalis); Difco Todd Hewitt broth for streptococci; Difco brain heart infusion broth+1% Difco Supplement C for H. influenzae; Difco Wilkins-Chalgren broth for anaerobes.

[4] = tested on: Staph. haemolyticus L602; assay: MIC by microbroth dilution; format: cell-based; details: 0.01% (w/v) BSA, 10^4 CFU/ml, read after 18-24 h, 37° C., Iso-Sensitest broth
Protocol: as §1, §2, §3, §4, §5

[5] = tested on: Strept. sanguis L1721; assay: MIC by microbroth dilution; format: cell-based; details: 0.01% (w/v) BSA, 10^4 CFU/ml, read after 18-24 h, 37° C., Todd Hewitt broth
Protocol: as §1, §2, §3, §4, §5

[6] = tested on: Streptococcus pyogenes L49; assay: MIC by microbroth dilution; format: cell-based; details: 0.01% (w/v) BSA, 10^4 CFU/ml, read after 18-24 h, 37° C., Todd Hewitt broth
Protocol: as §1, §2, §3, §4, §5

[7] = tested on: Staphylococcus aureus L165; assay: MIC by microbroth dilution; format: cell-based; details: 0.01% (w/v) BSA, 10^4 CFU/ml, read after 18-24 h, 37° C., Iso-Sensitest broth
Protocol: as §1, §2, §3, §4, §5

[8] = tested on: Bacteroides fragilis ATCC 25285 L1011; assay: MIC by microbroth dilution; format: cell-based; details: 0.01% (w/v) BSA, 10^5 CFU/ml, read after 48 h, 37° C., anaerobic N2-CO2-H2, Wilkins-Chalgren broth
Protocol: as §1, §2, §3, §4, §5

[9] = tested on: Haemoph. influenzae ATCC 19418 L970; assay: MIC by microbroth dilution; format: cell-based, Haemophilus influenzae; details: 0.01% (w/v) BSA, 10^4 CFU/ml, read after 48 h, 37° C., 5% CO2, brain heart infusion broth+1% Supplement C
Protocol: as §1, §2, §3, §4, §5

[10] = tested on: Propionibact. acnes ATCC 6919 L1014; assay: MIC by microbroth dilution; format: cell-based, Propionibacterium acnes; details: 0.01% (w/v) BSA, 10^5 CFU/ml, read after 48 h, 37° C., anaerobic N2-CO2-H2, Wilkins-Chalgren broth
Protocol: as §1, §2, §3, §4, §5

[11] = tested on: Enterococc. faecalis ATCC 7080 L149; assay: MIC by microbroth dilution; format: cell-based, Enterococcus faecalis; details: 0.01% (w/v) BSA, 10^4 CFU/ml, read after 18-24 h, 37° C., Iso-Sensitest broth
Protocol: as §1, §2, §3, §4, §5

[12] = tested on: Strept. agalactiae L310; assay: MIC by microbroth dilution; format: cell-based; details: 0.01% (w/v) BSA, 10^4 CFU/ml, read after 18-24 h, 37° C., Todd Hewitt broth
Protocol: as §1, §2, §3, §4, §5

[13] = tested on: streptococci isolates; assay: MIC on clinical isolates; format: cell-based; details: highest MIC observed
[14] = tested on: staphylococci isolates; assay: MIC on clinical isolates; format: cell-based; details: highest MIC observed
[15] = tested on: S. aureus (L819); assay: experimental septicemia in the mouse; format: in vivo; details: immunocompetent CD-1 mice infected i.p.; intravenously once, immediately after infection; survival on the 7th day
Protocol: (§6) The antimicrobial activity of the compounds of the invention is confirmed also in experimental septicemia in the mouse. Control and treatment groups contain ten CD-1 mice (Charles River) weighing 18-22 g. Two groups of immunocompetent mice are infected intraperitoneally with 0.5 ml of bacterial suspension prepared by diluting an overnight culture of S. aureus ([…]) or S. pyogenes ([…]) with sterile peptonized saline, while one group of neutropenic mice is infected intraperitoneally with 0.5 ml of bacterial suspension prepared by diluting an overnight culture of or E. faecalis ([…]) with sterile peptonized saline. Inocula are adjusted so that untreated animals died of septicemia within 48 h. The compound to be tested is administered intravenously once, immediately after infection with S. aureus, or twice, immediately and 5 hours after infection with S. pyogenes or E. faecalis. On the 7th day, the ED50 in mg/kg is calculated by the method of Spearman and Kraber (D. J. Finney "Statistical Methods in Biological Assay", Griffin, page 524, 1952) from the percentage of surviving animals at each dose.

[16] = tested on: S. pyogenes (L49); assay: experimental septicemia in the mouse; format: in vivo; details: immunocompetent CD-1 mice infected i.p.; intravenously twice, immediately and 5 hours after infection; survival on the 7th day
Protocol: as §6

[17] = tested on: enterococci isolates; assay: MIC on clinical isolates; format: cell-based; details: highest MIC observed
[18] = tested on: E. faecalis (L1139); assay: experimental septicemia in the mouse (neutropenic); format: in vivo; details: neutropenic CD-1 mice infected i.p.; intravenously twice, immediately and 5 hours after infection; survival on the 7th day
Protocol: as §6

Compound	antimicrobial activity against gram positive bacteria [1]	MIC of the compounds, Strept. pneumoniae L44 [2] [µg/mL]	MIC of the compounds, Staph. epidermidis ATCC 12228 L147 [3] [µg/mL]	MIC of the compounds, Staph. haemolyticus L602 [4] [µg/mL]	MIC of the compounds, Strept. sanguis L1721 [5] [µg/mL]	MIC of the compounds, Streptococcus pyogenes L49 [6] [µg/mL]	MIC of the compounds, Staphylococcus aureus L165 [7] [µg/mL]	MIC of the compounds, Bacteroides fragilis ATCC 25285 L1011 [8] [µg/mL]	MIC of the compounds, Haemoph. influenzae ATCC 19418 L970 [9] [µg/mL]	MIC of the compounds, Propionibact. acnes ATCC 6919 L1014 [10] [µg/mL]	MIC of the compounds, Enterococc. faecalis ATCC 7080 L149 [11] [µg/mL]	MIC of the compounds, Strept. agalactiae L310 [12] [µg/mL]	MIC against streptococci isolates [13] [µg/mL]	MIC against staphylococci isolates [14] [µg/mL]	ED50 in experimental septicemia, S. aureus (L819) [15] [mg/kg/dose]	ED50 in experimental septicemia, S. pyogenes (L49) [16] [mg/kg/dose]	MIC against enterococci isolates [17] [µg/mL]	ED50 in experimental septicemia, E. faecalis (L1139) [18] [mg/kg/dose]
CNC(=O)CC1NC(=O)c2csc(n2)-c2ccc(-c3nc(C4=NC(C(=O)N5CCCC5C(N)=O)CO4)cs3)nc2-c2csc(n2)-c2csc(n2)C(C(C)C)NC(=O)CNC(=O)c2csc(n2)C(C(C)C)NC(=O)c2nc1sc2C (stereo not shown) [amythiamicin factor A]	shows antimicrobial activity against gram positive bacteria																	
CCN(CC)CCNC(=O)C1CCCN1C(=O)C1COC(c2csc(-c3ccc4c(n3)-c3csc(n3)-c3csc(n3)C(C(O)c3ccccc3)NC(=O)CNC(=O)c3nc(sc3COC)C(C(C)C)NC(=O)c3nc(sc3C)C(CC(=O)NC)NC(=O)c3csc-4n3)n2)=N1 (mixture of isomers) [Compound 3]		0.13	0.13	0.13	0.25	0.5	0.03	8	8	0.03	0.03							
CCN(CC)CCNC(=O)C1CCCN1C(=O)C1COC(c2csc(-c3ccc4c(n3)-c3csc(n3)-c3csc(n3)C(C(O)c3ccccc3)NC(=O)CNC(=O)c3nc(sc3COC)C(C(C)C)NC(=O)c3nc(sc3C)C(CC(=O)NC)NC(=O)c3csc-4n3)n2)=N1 (stereo not shown) [Compound 3s]		0.13	0.13	0.13	0.13	0.25	0.06	8	8	0.03	0.06	0.5	≤ 1.0	≤ 0.5	1.5	7	≤ 0.13	0.67
